From US6399633B1, “Use of 4-H-1-benzopryan-4-one derivatives as inhibitors of smooth muscle cell proliferation” (priority 1999, dated 2002)
“Also recorded” adds a separate entry of the source. Read-outs that look alike come from different tables or passages of the source.

What was measured:
neointimal formation = details: instilled into the carotid artery at the time of injury; cited from earlier work
[1] = test system: Erk1 (p44 MAP kinase) and Erk2 (p42 MAP kinase); assay: Western blot of phosphorylated Erk1/Erk2 in HASMC; format: cell-based, human; details: growth factors 30 min
Procedure: (§1) Western blot analysis—Quiescent HASMC were treated in the presence or absence of growth factors and/or flavopiridol as indicated. Western blot analysis was performed as previously described^18. The primary antibodies were: a polyclonal anti-human cyclin D1 antibody (M-20, Santa Cruz), a monoclonal anti-human proliferating cell nuclear antigen (PCNA) antibody (PC10, Sigma), a phosphorylation-specific p44/42 (Erk1/Erk2) MAP kinase monoclonal antibody (New England Biolabs), and a monoclonal anti-Rb antibody (G3-245, Pharmigen), which recognizes the phosphorylated (pRb) and highly phosphorylated (ppRb) Rb species. For immunoblotting studies, experiments were repeated at least three times.

[2] = doses below the toxic threshold, Phase I human studies; cited from earlier work
PCNA = assay: Western blot of PCNA in HASMC; format: cell-based, human; details: flavopiridol 75 nmol/L pretreatment, 24 h
Procedure: as §1

[3] = test system: Human aortic smooth muscle cells (HASMC); assay: Trypan-blue exclusion viability; format: cell-based; details: flavopiridol 75 nmol/L, quiescent HASMC
Procedure: Trypan-blue exclusion—HASMC were grown in 5-cm dishes at low confluence and growth-arrested as described. Cells were treated with flavopiridol (75 nmol/L) or tumor necrosis factor-[…] (TNF-[…]; 50 ng/ml) for the indicated times. Following the removal of the medium, 0.4% trypan blue in phosphate-buffered saline was added to the dishes. After 5 min, the cells in the dishes were counted under the microscope. Blue cells were counted as nonviable cells.

[4] = in vivo; cited from earlier work
[5] = test system: Human aortic smooth muscle cells (HASMC); assay: Cell proliferation ELISA (BrdU incorporation); format: cell-based; details: flavopiridol 75 nmol/L; bFGF- and thrombin-induced
Procedure: Cell culture—Human aortic smooth muscle cells (HASMC) were obtained from Clonetics and were cultured as previously described^18. Cells were used at passages 5-9. Prior to performing experiments, cells were growth-arrested at 80% confluence for 48 h with medium containing 0.2% fetal bovine serum. Cell proliferation ELISA—Cell proliferation was measured by ELISA (Amersham Life Science). HASMC were grown in gelatin-coated 96-well plates and made quiescent. Cells were treated with 10 ng/ml bFGF, 2 U/ml thrombin, or vehicle for 24 h. Flavopiridol (75 nmol/L) was administered 1 h prior to growth factor treatment. 5-Bromo-2′-deoxyuridine (BrdU) was added to a final concentration of 10 μmol/L during the last 2 h of treatment. BrdU incorporation was measured as described^19. Results are expressed as mean±SEM for 12 samples per condition from two independent experiments.

[6] = test system: Erk1 (p44 MAP kinase) and Erk2 (p42 MAP kinase); assay: In-gel kinase assay (myelin basic protein) in HASMC; format: cell-based, human; details: growth factors 30 min
Procedure: In-gel kinase assay—Quiescent HASMC were treated with growth factors for 30 min and total cell lysates were prepared as described for Western blotting. In some experiments, HASMC were pretreated for 60 min with 30 μmol/L PD98059, flavopiridol, or vehicle. Equal amounts of proteins (50 μg/lane) were resolved on a polyacrylamide gel that was copolymerized with 350 μg/ml myelin basic protein. The gel was treated with [γ-^32P]ATP and autoradiography was performed as described^19.

[7] = test system: Human aortic smooth muscle cells (HASMC); assay: Cell counts of growth-arrested HASMC; format: cell-based; details: bFGF 10 ng/ml, flavopiridol 75 nmol/L, three days; bFGF alone 3-fold increase
Procedure: Cell culture—Human aortic smooth muscle cells (HASMC) were obtained from Clonetics and were cultured as previously described^18. Cells were used at passages 5-9. Prior to performing experiments, cells were growth-arrested at 80% confluence for 48 h with medium containing 0.2% fetal bovine serum. Cell counts—Growth-arrested HASMC grown to 50% confluence in 6-well plates were treated with or without flavopiridol (75 nmol/L) or bFGF (10 ng/ml). At intervals after treatment, cells were trypsinized and cell numbers determined using a hemocytometer.

Rb = assay: Western blot of Rb phosphorylation in HASMC; format: cell-based, human; details: flavopiridol 75 nmol/L, 24 h
Procedure: as §1

[8] = test system: rat carotid artery neointimal formation; details: for PCNA-positive nuclei in the neointima: 5 mg/kg orally
Procedure: Rat carotid injury model—Injury to the rat carotid artery was performed essentially as described^2. Adult male Sprague-Dawley rats (400-500 g, Zivic-Miller) were anesthetized with an intraperitoneal injection of ketamine ([…]) and xylazine (4 mg/kg). The left internal carotid was then cannulated with a 2F embolectomy catheter. The balloon was inflated with saline and withdrawn across the artery three times to produce a distending and denuding injury. The right carotid artery was uninjured and served as a control of injury for each animal. Immediately following recovery from anesthesia and for four additional days thereafter, rats were administered flavopiridol (5 mg/kg in water) or water by gavage in a blinded manner. […] At specified time points after carotid injury, rats were anesthetized as above and perfusion-fixed systemically with 4% paraformaldehyde in phosphate-buffered saline. Right and left carotid arteries were removed and distended by injection of 4% paraformaldehyde through the lumen, after which they were dehydrated and stored in 70% ethanol at 4° C. Immunohistochemistry was performed as previously described^18, using the monoclonal PCNA antibody and a polyclonal anti-human Cdk2 antibody (M2-G, Santa Cruz).
Image analysis—The extreme distal and proximal regions of each artery (approx. 500 μm) were removed. Ten intermediate cross-sections (8 μm each) taken 500 μm apart were analyzed from each artery. Slides were fixed and stained with hematoxylin and eosin as previously described^18. Using a Nikon Diaphot 300 microscope and a 4× objective, each cross-section was captured as a digital image using a Hamamatsu C5985 video camera and TCPro 2.41 (Coreco, Inc.). Medial and neointimal areas were determined using NIH Image software. Medial and neointimal boundaries were determined by one slide reviewer (A.M.) and verified in a blinded fashion by a second reviewer (C.P.). Lesion size was expressed as the neointima/media ratio. Results for each group were expressed as the mean±SEM.

cyclin D1 = assay: Western blot of cyclin D1 in HASMC; format: cell-based, human; details: flavopiridol 75 nmol/L pretreatment, 24 h
Procedure: as §1

Cdc2 and Cdk2 = assay: Cdk activity (histone H1 kinase assay) in HASMC lysates; format: cell-based, human; details: flavopiridol 75 nmol/L pretreatment, 24 h
Procedure: Cdk activity—Quiescent HASMC were treated with agonists and inhibitors for 24 h and total cell lysates were prepared as described for Western blotting. The kinase assay was performed with a histone H1 kinase assay kit (Upstate Biotechnology) following the manufacturer's instructions. In brief, 10 μl of peptide inhibitors for protein kinase C (2 μmol/L) and protein kinase A (2 μmol/L), 100 μg cell lysate, 10 μl assay buffer and 10 μl of a mixture containing 75 μmol/L magnesium chloride, 500 μmol/L ATP and 1 μCi/ml [γ-^32P]ATP were mixed in a microcentrifuge tube. After incubation at 30° C. for 10 min, aliquots were pipetted onto phosphocellulose papers. The papers were washed in 0.75% phosphoric acid, followed by measurement of cpm in a scintillation counter (Beckman). Results are expressed as the mean±SEM for three samples and are representative of three independent experiments.

COc1ccc(CNc2nc(N(CCO)CCO)nc3c2ncn3C(C)C)cc1 [CVT-313]
neointimal formation (neointimal formation): can also inhibit neointimal formation

CN1CC[C@H](c2c(O)cc(O)c3c(=O)cc(-c4ccccc4Cl)oc23)[C@H](O)C1 [flavopiridol, (−)-cis, -5,7-dihydroxy-2-(2-chlorophenyl)-8-[4-(3-hydroxy-1-methyl)piperidinyl]-4H-benzopyran-4-one]
thrombin- and bFGF-induced phosphorylation of Erk1 and Erk2 ([1]; flavopiridol 75 nmol/L): no effect
median serum concentrations [2]: 425 nmol/L
growth factor-induced increased expression of PCNA (PCNA): blocked
HASMC viability (trypan blue exclusion) [3]: does not decrease HASMC viability
HASMC viability (trypan blue exclusion) ([3]; listed as Flavopiridol): no effect
biological half-life [4]: 2.5 hrs
inhibition of SMC proliferation [5]: near complete inhibition
thrombin- and bFGF-induced Erk1 and Erk2 activity (in-gel kinase) ([6]; flavopiridol 75 nmol/L): no effect
bFGF-induced increase in cell number [7]: efficiently blocked
thrombin- and bFGF-induced hyperphosphorylation of Rb (Rb): inhibited; also recorded: blocked
Cdk2-positive cells in the neointima vs untreated rats ([8]; 7 and 14 days after injury, 5 mg/kg by gavage): much less common
reduction of neointimal area ([8]; 7 days after injury, 5 mg/kg by gavage): 35%
PCNA-positive nuclei in the neointima ([8]; 7 days after injury, untreated 31.1±7.2%): 11.8±1.5%
reduction of neointimal area ([8]; 14 days after injury, 5 mg/kg by gavage): 39%
PCNA-positive nuclei in the neointima ([8]; 14 days after injury): 10.4±2.0%
signs of toxicity related to drug administration ([8]; rat, in vivo, 5 mg/kg): no overt signs of toxicity
bFGF- and thrombin-induced upregulation of cyclin D1 protein (cyclin D1): completely blocked
bFGF- and thrombin-induced increases in histone H1 kinase (cyclin-dependent kinase) activity (Cdc2 and Cdk2): totally blocked; also recorded: inhibited

COc1cccc(-c2cc(=O)c3ccccc3o2)c1N [PD98059, reference compound]
thrombin- and bFGF-induced phosphorylation of Erk1 and Erk2 ([1]; PD98059 30 μmol/L): blocked
thrombin- and bFGF-induced Erk1 and Erk2 activity (in-gel kinase) ([6]; PD98059 30 μmol/L pretreatment 60 min): inhibitable
